Assays:
influenza virus A/WS/33 = experiment: microbe, parasite or virus in culture; assay type: cell-based
C3HA murine fibroblasts = experiment: TNF-α-induced apoptosis, Rhodamine 123 fluorescence; details: M4N 50 μM, TNF-α 20 ng/ml + cycloheximide 10 μg/ml, 6 hours
Protocol: C3HA murine fibroblasts were incubated with human recombinant TNF-α (20 ng/ml), cycloheximide (CHI) (10 μg/ml), or both, in the absence/presence of NDGA (25 μM) or M4N (50 μM). All compounds were added simultaneously and treatments were for 6 hours. Rhodamine 123 was added during the last half hour and fluorescence measured using a BMG POLARstar galaxy flourimeter.
More specifically, C3HA cells were cultured in Dulbecco's modified Eagles medium supplemented with 10% fetal bovine serum and maintained at 37° C. in 8% carbon dioxide. […] For apoptosis assays, cells were harvested by trypsinization, centrifuged, counted and 1.5×10^4 cells added to each well of a flat bottom 96 well microtiter plate in culture media. Cells were allowed to adhere at least six (6) hours prior to the addition to TNF (20 ng/ml), CHI (10 μg/milliliter), or both, in the absence/presence of nordihydroguaiaretic acid (25 μM) or M4N (50 μM). […] Both were dissolved in culture media. […] Rhodamine 123 is sequestered by energized mitochondria and live healthy cells display strong mitochondrial fluorescence. […] Fluorescence intensity was then determined using a BMG POLARstar galaxy microplate reader with excitation and emission wavelengths set at 492 and 538 nanometers, respectively. All points were performed in triplicate and percentage cell death was calculated from the following formula: […]

MDCK cells = experiment: Toxic effects in MDCK cells

COc1ccc(C[C@@H](C)[C@@H](C)Cc2ccc(OC)c(OC)c2)cc1OC [M4N, meso-1,4-bis(3,4-dimethoxyphenyl)-2,3-dimethylbutane]
inhibitory effect on virus titer (log plot) (influenza virus A/WS/33; EM-1421 25 μM, MDCK cells): less than 1 log unit | inhibition at 25 µM (influenza virus A/WS/33; MDCK, 0.5 h, read-out: inhibition of A/WS/33 replication in MDCK cells): ~75% | inhibition of TNF-α-induced apoptosis (C3HA murine fibroblasts): strongly inhibits | highest concentration that could be used without causing toxic effects (MDCK cells): 25 µM
